The source of these data is patent US10858356B2, “Pyrazolopyridine derivative having GLP-1 receptor agonist effect” (Chugai Seiyaku Kabushiki Kaisha, priority 2016, dated 2020).

For the experiment, the target named is human GLP1R (Homo sapiens (Human), UniProt P43220). Kind of experiment: In vitro cAMP signal activation in human GLP1R stably-expressing cell line (hGLP1R-HEK293). The class given is cell-based. The settings on record: cAMP concentration in hGLP1R-HEK293; 100% = 1 nM human GLP-1 (7-37).

One may read the EC50 as the midpoint of the concentration-response curve.

Sequence of human GLP1R (P43220 24-463): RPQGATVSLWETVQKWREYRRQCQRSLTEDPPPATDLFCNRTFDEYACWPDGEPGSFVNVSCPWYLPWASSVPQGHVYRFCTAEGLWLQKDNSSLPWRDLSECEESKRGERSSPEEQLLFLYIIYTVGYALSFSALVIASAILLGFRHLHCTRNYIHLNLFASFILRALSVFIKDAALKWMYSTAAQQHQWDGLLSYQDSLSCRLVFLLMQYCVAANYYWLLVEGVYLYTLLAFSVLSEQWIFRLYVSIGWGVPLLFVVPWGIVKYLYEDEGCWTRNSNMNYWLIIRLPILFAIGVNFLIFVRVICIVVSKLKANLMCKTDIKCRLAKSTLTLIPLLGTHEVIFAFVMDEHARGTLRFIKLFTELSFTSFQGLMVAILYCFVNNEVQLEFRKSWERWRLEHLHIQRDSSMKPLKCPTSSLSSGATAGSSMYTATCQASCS

Consider `Cc1cc(-n2nc3c(c2-n2ccn(-c4ccc5c(cnn5[C@@H]5CCOC5)c4)c2=O)CN(C(=O)c2cc4cc(C5CCOCC5)ccc4n2[C@@]2(c4noc(=O)[nH]4)C[C@@H]2C)CC3)cc(C)c1F` [Example 8, 3-[(1S,2S)-1-[2-[2-(4-fluoro-3,5-dimethylphenyl)-3-[2-oxo-3-[1-[(3R)-oxolan-3-yl]indazol-5-yl]imidazol-1-yl]-6,7-dihydro-4H-pyrazolo[4,3-c]pyridine-5-carbonyl]-5-(oxan-4-yl)indol-1-yl]-2-methylcyclopropyl]-4H-1,2,4-oxadiazol-5-one], for which the midpoint of the response, the EC50, lay at 2.5 nM.

The molecule `Cc1cc(-n2nc3c(c2-n2ccn(-c4ccc5c(cnn5[C@H]5CCOC5)c4F)c2=O)[C@H](C)N(C(=O)c2cc4cc([C@H]5CCOC(C)(C)C5)ccc4n2[C@@]2(c4noc(=O)[nH]4)C[C@@H]2C)CC3)cc(C)c1F` [Example 40, 3-[(1S,2S)-1-[5-[(4S)-2,2-dimethyloxan-4-yl]-2-[(4S)-2-(4-fluoro-3,5-dimethylphenyl)-3-[3-[4-fluoro-1-[(3S)-oxolan-3-yl]indazol-5-yl]-2-oxoimidazol-1-yl]-4-methyl-6,7-dihydro-4H-pyrazolo[4,3-c]pyridine-5-carbonyl]indol-1-yl]-2-methylcyclopropyl]-4H-1,2,4-oxadiazol-5-one] yielded an EC50 of 2.2 nM.

With `CCc1nccc(-c2ccc3c(c2)cc(C(=O)N2CCc4nn(-c5cc(C)c(F)c(C)c5)c(-n5ccn(-c6ccc(OC)c(F)c6)c5=O)c4C2)n3[C@@]2(c3noc(=O)[nH]3)C[C@@H]2C)c1C` [Example 4], the EC50 is 12 nM.

The molecule `COCCn1ncc2cc(-n3ccn(-c4c5c(nn4-c4cc(C)c(F)c(C)c4)CCN(C(=O)c4cc6cc(C7CCOCC7)cc(F)c6n4[C@@]4(c6noc(=O)[nH]6)C[C@@H]4C)[C@H]5C)c3=O)ccc21` [compound 63, 3-[(1S,2S)-1-[7-fluoro-2-[(4S)-2-(4-fluoro-3,5-dimethylphenyl)-3-[3-[1-(2-methoxyethyl)indazol-5-yl]-2-oxoimidazol-1-yl]-4-methyl-6,7-dihydro-4H-pyrazolo[4,3-c]pyridine-5-carbonyl]-5-(oxan-4-yl)indol-1-yl]-2-methylcyclopropyl]-4H-1,2,4-oxadiazol-5-one] came in with an EC50 of 1.1 nM.

`Cc1cc(-n2nc3c(c2-n2ccn(-c4ccc5c(cnn5CC(F)(F)F)c4F)c2=O)[C@H](C)N(C(=O)c2cc4cc(C5CCOCC5)ccc4n2[C@@]2(c4noc(=O)[nH]4)C[C@@H]2C)CC3)cc(C)c1F` [Example 28, 3-[(1S,2S)-1-[2-[(4S)-2-(4-fluoro-3,5-dimethylphenyl)-3-[3-[4-fluoro-1-(2,2,2-trifluoroethyl)indazol-5-yl]-2-oxoimidazol-1-yl]-4-methyl-6,7-dihydro-4H-pyrazolo[4,3-c]pyridine-5-carbonyl]-5-(oxan-4-yl)indol-1-yl]-2-methylcyclopropyl]-4H-1,2,4-oxadiazol-5-one] yielded an EC50 of 1.9 nM.

In the case of `Cc1cc(-n2nc3c(c2-n2ccn(-c4ccc5c(cnn5C)c4)c2=O)CN(C(=O)c2cc4cc(C5CCOC6(CCCC6)C5)ccc4n2[C@@]2(c4noc(=O)[nH]4)C[C@@H]2C)CC3)cc(C)c1F` (stereo partly drawn) [compound 75, 3-[(1S,2S)-1-[2-[2-(4-fluoro-3,5-dimethylphenyl)-3-[3-(1-methylindazol-5-yl)-2-oxoimidazol-1-yl]-6,7-dihydro-4H-pyrazolo[4,3-c]pyridine-5-carbonyl]-5-(6-oxaspiro[4.5]decan-9-yl)indol-1-yl]-2-methylcyclopropyl]-4H-1,2,4-oxadiazol-5-one], a half-maximal response (EC50) required 6.2 nM.

As for `Cc1cc(-n2nc3c(c2-n2ccn(-c4ccc5c(cnn5C)c4)c2=O)CN(C(=O)c2cc4cc([C@H]5CCOC(C)(C)C5)ccc4n2[C@@]2(c4noc(=O)[nH]4)C[C@@H]2C)CC3)cc(C)c1F` [compound 59, 3-[(1S,2S)-1-[5-[(4S)-2,2-dimethyloxan-4-yl]-2-[2-(4-fluoro-3,5-dimethylphenyl)-3-[3-(1-methylindazol-5-yl)-2-oxoimidazol-1-yl]-6,7-dihydro-4H-pyrazolo[4,3-c]pyridine-5-carbonyl]indol-1-yl]-2-methylcyclopropyl]-4H-1,2,4-oxadiazol-5-one], the EC50 came out at 1.5 nM.

For `COc1cc(-n2ccn(-c3c4c(nn3-c3cc(C)c(F)c(C)c3)CCN(C(=O)c3cc5cc(C6CCOCC6)ccc5n3[C@@]3(c5noc(=O)[nH]5)C[C@@H]3C)[C@H]4C)c2=O)ccc1OC(C)(C)CO` [Example 20, 3-[(1S,2S)-1-[2-[(4S)-2-(4-fluoro-3,5-dimethylphenyl)-3-[3-[4-(1-hydroxy-2-methylpropan-2-yl)oxy-3-methoxyphenyl]-2-oxoimidazol-1-yl]-4-methyl-6,7-dihydro-4H-pyrazolo[4,3-c]pyridine-5-carbonyl]-5-(oxan-4-yl)indol-1-yl]-2-methylcyclopropyl]-4H-1,2,4-oxadiazol-5-one], a half-maximal response (EC50) required 1.9 nM.

Take `Cc1cc(-n2nc3c(c2-n2ccn(-c4ccc5c(cnn5C)c4F)c2=O)[C@H](C)N(C(=O)c2cc4cc([C@H]5CCOC(C)(C)C5)ccc4n2[C@@]2(c4noc(=O)[nH]4)C[C@@H]2C)CC3)cc(C)c1Cl` [compound 65, 3-[(1S,2S)-1-[2-[(4S)-2-(4-chloro-3,5-dimethylphenyl)-3-[3-(4-fluoro-1-methylindazol-5-yl)-2-oxoimidazol-1-yl]-4-methyl-6,7-dihydro-4H-pyrazolo[4,3-c]pyridine-5-carbonyl]-5-[(4S)-2,2-dimethyloxan-4-yl]indol-1-yl]-2-methylcyclopropyl]-4H-1,2,4-oxadiazol-5-one]: the EC50 is 3.5 nM.

`Cc1cc(-n2nc3c(c2-n2ccn(-c4ccc5c(cnn5C)c4)c2=O)[C@H](C)N(C(=O)c2cc4cc([C@H]5CCOC(C)(C)C5)ccc4n2[C@@]2(c4noc(=O)[nH]4)C[C@@H]2C)CC3)cc(C)c1F` [compound 66, 3-[(1S,2S)-1-[5-[(4S)-2,2-dimethyloxan-4-yl]-2-[(4S)-2-(4-fluoro-3,5-dimethylphenyl)-4-methyl-3-[3-(1-methylindazol-5-yl)-2-oxoimidazol-1-yl]-6,7-dihydro-4H-pyrazolo[4,3-c]pyridine-5-carbonyl]indol-1-yl]-2-methylcyclopropyl]-4H-1,2,4-oxadiazol-5-one] came in with an EC50 of 0.81 nM.

`Cc1cc(-n2nc3c(c2-n2ccn(-c4ccc5c(cnn5C)c4)c2=O)[C@H](C)N(C(=O)c2cc4cc(C5CCOCC5)ccc4n2[C@@]2(c4noc(=O)[nH]4)C[C@@H]2C)[C@H](C)C3)cc(C)c1F` [compound 80, 3-[(1S,2S)-1-[2-[(4S,6R)-2-(4-fluoro-3,5-dimethylphenyl)-4,6-dimethyl-3-[3-(1-methylindazol-5-yl)-2-oxoimidazol-1-yl]-6,7-dihydro-4H-pyrazolo[4,3-c]pyridine-5-carbonyl]-5-(oxan-4-yl)indol-1-yl]-2-methylcyclopropyl]-4H-1,2,4-oxadiazol-5-one] showed an EC50 of 2.4 nM.

With `Cc1cc(-n2nc3c(c2-n2ccn(-c4ccc5c(cnn5CC(F)(F)F)c4)c2=O)CN(C(=O)c2cc4cc(C5CCOCC5)ccc4n2[C@@]2(c4noc(=O)[nH]4)C[C@@H]2C)CC3)cc(C)c1F` [Example 10, 3-[(1S,2S)-1-[2-[2-(4-fluoro-3,5-dimethylphenyl)-3-[2-oxo-3-[1-(2,2,2-trifluoroethyl)indazol-5-yl]imidazol-1-yl]-6,7-dihydro-4H-pyrazolo[4,3-c]pyridine-5-carbonyl]-5-(oxan-4-yl)indol-1-yl]-2-methylcyclopropyl]-4H-1,2,4-oxadiazol-5-one], a half-maximal response (EC50) required 2.8 nM.
